Measured values published in ChEMBL document CHEMBL3352701, “Discovery of a 1,2-bis(3-indolyl)ethane that selectively inhibits the pyruvate kinase of methicillin-resistant Staphylococcus aureus over human isoforms” (Bioorg Med Chem Lett, 2014).
pIC50: −log10 of the molar value. Converted amounts (≈) assume the structure as drawn.

Assays:
Pyruvate kinase = molecular target: T1, Pyruvate kinase (Staphylococcus aureus (strain MRSA252), UniProt Q6GG09); assay: Inhibition of purified methicillin-resistant Staphylococcus aureus N-terminal His-tagged pyruvate kinase by LDH-coupled continuous assay; conditions: for pIC50: read-out: IC50
T1 sequence (Q6GG09 whole entry): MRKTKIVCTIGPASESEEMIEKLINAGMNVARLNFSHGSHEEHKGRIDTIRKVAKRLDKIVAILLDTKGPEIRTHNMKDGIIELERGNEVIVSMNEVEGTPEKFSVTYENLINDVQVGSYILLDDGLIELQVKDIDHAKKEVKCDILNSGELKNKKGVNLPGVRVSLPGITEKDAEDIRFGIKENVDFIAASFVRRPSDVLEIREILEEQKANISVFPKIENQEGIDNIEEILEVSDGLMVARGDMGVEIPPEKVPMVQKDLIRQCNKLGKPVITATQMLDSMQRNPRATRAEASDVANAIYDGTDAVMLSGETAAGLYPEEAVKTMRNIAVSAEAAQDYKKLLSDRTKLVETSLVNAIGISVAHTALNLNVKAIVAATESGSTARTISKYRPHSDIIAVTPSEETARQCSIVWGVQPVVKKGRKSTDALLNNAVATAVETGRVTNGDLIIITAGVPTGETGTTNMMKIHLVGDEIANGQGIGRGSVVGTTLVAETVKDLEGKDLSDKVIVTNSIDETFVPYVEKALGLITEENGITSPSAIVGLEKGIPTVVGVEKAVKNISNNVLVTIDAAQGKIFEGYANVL

Pyruvate kinase PKLR [1] = molecular target: T2, Pyruvate kinase PKLR (Homo sapiens, UniProt P30613); assay: Inhibition of purified human N-terminal His-tagged PK-R at 100 uM by LDH-coupled continuous assay
Target sequence in this assay (P30613 whole entry, looked up): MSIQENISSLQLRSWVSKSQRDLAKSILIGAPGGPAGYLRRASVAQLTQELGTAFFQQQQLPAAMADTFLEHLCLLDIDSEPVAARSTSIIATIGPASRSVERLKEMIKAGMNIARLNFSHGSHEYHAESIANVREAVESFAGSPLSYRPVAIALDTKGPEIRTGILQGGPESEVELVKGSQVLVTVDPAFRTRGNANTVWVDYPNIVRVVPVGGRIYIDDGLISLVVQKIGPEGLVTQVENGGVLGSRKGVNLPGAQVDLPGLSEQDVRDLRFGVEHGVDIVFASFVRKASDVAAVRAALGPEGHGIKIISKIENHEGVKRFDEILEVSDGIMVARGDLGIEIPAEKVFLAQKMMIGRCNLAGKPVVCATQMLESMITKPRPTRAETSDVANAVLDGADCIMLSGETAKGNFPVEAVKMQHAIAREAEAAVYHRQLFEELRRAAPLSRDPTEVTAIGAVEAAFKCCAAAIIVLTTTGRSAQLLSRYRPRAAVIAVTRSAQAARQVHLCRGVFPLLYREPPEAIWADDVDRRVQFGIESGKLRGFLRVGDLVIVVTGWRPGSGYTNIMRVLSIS

Pyruvate kinase PKM [2] = molecular target: T3, Pyruvate kinase PKM (Homo sapiens, UniProt P14618); assay: Inhibition of purified human N-terminal His-tagged PK-M1 at 100 uM by LDH-coupled continuous assay
Target sequence in this assay (P14618 2-531 limits assumed): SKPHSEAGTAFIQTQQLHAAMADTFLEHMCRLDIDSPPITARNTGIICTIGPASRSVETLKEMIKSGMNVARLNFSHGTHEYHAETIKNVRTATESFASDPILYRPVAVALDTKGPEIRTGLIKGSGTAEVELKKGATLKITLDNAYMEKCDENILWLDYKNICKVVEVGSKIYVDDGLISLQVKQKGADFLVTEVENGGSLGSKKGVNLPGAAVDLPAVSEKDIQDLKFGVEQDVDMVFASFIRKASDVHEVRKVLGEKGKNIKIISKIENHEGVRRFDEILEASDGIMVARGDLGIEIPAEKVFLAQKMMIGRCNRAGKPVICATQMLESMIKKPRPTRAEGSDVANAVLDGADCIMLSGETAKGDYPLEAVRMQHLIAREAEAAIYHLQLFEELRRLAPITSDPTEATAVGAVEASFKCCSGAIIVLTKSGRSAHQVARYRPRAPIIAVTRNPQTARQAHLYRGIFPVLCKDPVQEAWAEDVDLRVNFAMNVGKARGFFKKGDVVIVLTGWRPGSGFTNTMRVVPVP

Pyruvate kinase PKLR [3] = molecular target: T2, Pyruvate kinase PKLR; assay: Inhibition of purified human N-terminal His-tagged PK-L at 100 uM by LDH-coupled continuous assay
Target sequence in this assay (P30613 whole entry, looked up): as the sequence (P30613 whole entry, looked up) above

Pyruvate kinase PKM [4] = molecular target: T3, Pyruvate kinase PKM; assay: Inhibition of purified human N-terminal His-tagged PK-M2 at 100 uM by LDH-coupled continuous assay
Target sequence in this assay (P14618 2-531 limits assumed): as the sequence (P14618 2-531 limits assumed) above

[5] = molecular target: T4, Pyruvate kinase (Staphylococcus aureus (strain MRSA252)) (UniProt Q6GG09); assay: Inhibition of purified methicillin-resistant Staphylococcus aureus N-terminal His-tagged pyruvate kinase at 100 uM by LDH-coupled continuous assay
T4 sequence (whole entry): T1 sequence (Q6GG09 whole entry)

Staphylococcus aureus = assay: Antimicrobial activity against Staphylococcus aureus ATCC 29213 after 24 hrs by CLSI microtiter method; type: functional; conditions: ATCC 29213, 24 h
Pyruvate kinase PKM [6] = molecular target: T3, Pyruvate kinase PKM; assay: Inhibition of purified human N-terminal His-tagged PK-M1 by LDH-coupled continuous assay
Target sequence in this assay (P14618 whole entry): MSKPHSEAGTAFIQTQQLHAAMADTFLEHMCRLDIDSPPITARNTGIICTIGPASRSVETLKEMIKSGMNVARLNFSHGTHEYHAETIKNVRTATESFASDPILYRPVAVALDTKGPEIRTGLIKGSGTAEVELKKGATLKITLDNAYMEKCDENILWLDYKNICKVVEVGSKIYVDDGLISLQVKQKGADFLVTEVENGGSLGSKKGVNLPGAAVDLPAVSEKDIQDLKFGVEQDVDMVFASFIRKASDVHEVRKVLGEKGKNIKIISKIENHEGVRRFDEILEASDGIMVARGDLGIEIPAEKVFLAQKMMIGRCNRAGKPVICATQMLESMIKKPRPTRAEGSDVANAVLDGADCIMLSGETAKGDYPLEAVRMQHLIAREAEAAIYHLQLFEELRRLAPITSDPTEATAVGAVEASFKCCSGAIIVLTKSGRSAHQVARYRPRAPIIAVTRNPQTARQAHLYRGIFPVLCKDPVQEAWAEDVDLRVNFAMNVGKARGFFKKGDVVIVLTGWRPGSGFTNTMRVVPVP

Pyruvate kinase PKLR [7] = molecular target: T2, Pyruvate kinase PKLR; conditions: 10 uM
Target sequence in this assay (P30613 whole entry, looked up): as the sequence (P30613 whole entry, looked up) above
Description: Inhibition of purified human N-terminal His-tagged PK-R at 10 uM by LDH-coupled continuous assay

Pyruvate kinase PKLR [8] = molecular target: T2, Pyruvate kinase PKLR; assay: Inhibition of purified human N-terminal His-tagged PK-R by LDH-coupled continuous assay
Target sequence in this assay (P30613 whole entry): as the sequence (P30613 whole entry, looked up) above

[9] = molecular target: T4, Pyruvate kinase (Staphylococcus aureus (strain MRSA252)); assay: Inhibition of purified methicillin-resistant Staphylococcus aureus N-terminal His-tagged pyruvate kinase at 10 uM by LDH-coupled continuous assay
Pyruvate kinase PKLR [10] = molecular target: T2, Pyruvate kinase PKLR; conditions: 10 uM; remark: listed apart in the source
Target sequence in this assay (P30613 whole entry, looked up): as above
Description: Inhibition of purified human N-terminal His-tagged PK-L at 10 uM by LDH-coupled continuous assay

Pyruvate kinase PKM [11] = molecular target: T3, Pyruvate kinase PKM; conditions: 10 uM
Target sequence in this assay (P14618 2-531 limits assumed): as the sequence (P14618 2-531 limits assumed) above
Description: Inhibition of purified human N-terminal His-tagged PK-M1 at 10 uM by LDH-coupled continuous assay

Pyruvate kinase PKM [12] = molecular target: T3, Pyruvate kinase PKM; conditions: 10 uM; remark: listed apart in the source
Target sequence in this assay (P14618 2-531 limits assumed): as above
Description: Inhibition of purified human N-terminal His-tagged PK-M2 at 10 uM by LDH-coupled continuous assay

Pyruvate kinase PKLR [13] = molecular target: T2, Pyruvate kinase PKLR; assay: Inhibition of purified human N-terminal His-tagged PK-L by LDH-coupled continuous assay
Target sequence in this assay (P30613 whole entry): as the sequence (P30613 whole entry, looked up) above

Pyruvate kinase PKM [14] = molecular target: T3, Pyruvate kinase PKM; assay: Inhibition of purified human N-terminal His-tagged PK-M2 by LDH-coupled continuous assay
Target sequence in this assay (P14618 whole entry): as the sequence (P14618 whole entry) above

Pyruvate kinase PKM [15] = molecular target: T3, Pyruvate kinase PKM; assay: Inhibition of purified human N-terminal His-tagged PK-M1 at 50 uM by LDH-coupled continuous assay
Target sequence in this assay (P14618 2-531 limits assumed): as the sequence (P14618 2-531 limits assumed) above

Pyruvate kinase PKLR [16] = molecular target: T2, Pyruvate kinase PKLR; assay: Inhibition of purified human N-terminal His-tagged PK-R at 50 uM by LDH-coupled continuous assay
Target sequence in this assay (P30613 whole entry, looked up): as the sequence (P30613 whole entry, looked up) above

[17] = molecular target: T4, Pyruvate kinase (Staphylococcus aureus (strain MRSA252)); assay: Inhibition of purified methicillin-resistant Staphylococcus aureus N-terminal His-tagged pyruvate kinase at 50 uM by LDH-coupled continuous assay
Pyruvate kinase PKLR [18] = molecular target: T2, Pyruvate kinase PKLR; assay: Inhibition of purified human N-terminal His-tagged PK-L at 50 uM by LDH-coupled continuous assay
Target sequence in this assay (P30613 whole entry, looked up): as above

Pyruvate kinase PKM [19] = molecular target: T3, Pyruvate kinase PKM; assay: Inhibition of purified human N-terminal His-tagged PK-M2 at 50 uM by LDH-coupled continuous assay
Target sequence in this assay (P14618 2-531 limits assumed): as the sequence (P14618 2-531 limits assumed) above

Pyruvate kinase PKLR [20] = molecular target: T2, Pyruvate kinase PKLR; assay: Inhibition of purified human N-terminal His-tagged PK-L at 150 uM by LDH-coupled continuous assay
Pyruvate kinase PKLR [21] = molecular target: T2, Pyruvate kinase PKLR; assay: Inhibition of purified human N-terminal His-tagged PK-R at 150 uM by LDH-coupled continuous assay
[22] = molecular target: T4, Pyruvate kinase (Staphylococcus aureus (strain MRSA252)); assay: Inhibition of purified methicillin-resistant Staphylococcus aureus N-terminal His-tagged pyruvate kinase at 150 uM by LDH-coupled continuous assay
Pyruvate kinase PKM [23] = molecular target: T3, Pyruvate kinase PKM; assay: Inhibition of purified human N-terminal His-tagged PK-M2 at 150 uM by LDH-coupled continuous assay
Pyruvate kinase PKM [24] = molecular target: T3, Pyruvate kinase PKM; assay: Inhibition of purified human N-terminal His-tagged PK-M1 at 150 uM by LDH-coupled continuous assay
Pyruvate kinase PKLR [25] = molecular target: T2, Pyruvate kinase PKLR; assay: Inhibition of purified human N-terminal His-tagged PK-L at 40 uM by LDH-coupled continuous assay
[26] = molecular target: T4, Pyruvate kinase (Staphylococcus aureus (strain MRSA252)); conditions: 40 uM
Description: Inhibition of purified methicillin-resistant Staphylococcus aureus N-terminal His-tagged pyruvate kinase at 40 uM by LDH-coupled continuous assay

Pyruvate kinase PKLR [27] = molecular target: T2, Pyruvate kinase PKLR; assay: Inhibition of purified human N-terminal His-tagged PK-R at 40 uM by LDH-coupled continuous assay
Pyruvate kinase PKM [28] = molecular target: T3, Pyruvate kinase PKM; assay: Inhibition of purified human N-terminal His-tagged PK-M1 at 40 uM by LDH-coupled continuous assay
Pyruvate kinase PKM [29] = molecular target: T3, Pyruvate kinase PKM; assay: Inhibition of purified human N-terminal His-tagged PK-M2 at 40 uM by LDH-coupled continuous assay

Compound `Cc1ccc2[nH]cc(CCc3c[nH]c4ccccc34)c2c1` has a pIC50 (Pyruvate kinase) of 4.48.
`O=C(C(=O)c1c[nH]c2ccccc12)c1c[nH]c2ccccc12` gave a pIC50 (Pyruvate kinase) of 4.30.
`Clc1ccc2[nH]cc(CCc3c[nH]c4ccccc34)c2c1` showed an inhibition (Pyruvate kinase PKLR [1]) of 95%, a pIC50 (Pyruvate kinase) of 4.90 and an inhibition (Pyruvate kinase PKM [2]) of 30.8%. The inhibition (Pyruvate kinase PKLR [3]) was 103%, the inhibition (Pyruvate kinase PKM [4]) was 98.7% and the inhibition [5] was 114%.
In the case of `N#Cc1ccc2c(CCc3c[nH]c4ccccc34)c[nH]c2c1`, the IC50 (Pyruvate kinase) was “Not Active” and the MIC (Staphylococcus aureus) was 16 µg/mL (≈ 56.1 µM).
With `O=[N+]([O-])c1ccc2c(CCc3c[nH]c4ccccc34)c[nH]c2c1` the pIC50 (Pyruvate kinase PKM [6]) was 4.02, the inhibition (Pyruvate kinase PKLR [7]) was 3% and the pIC50 (Pyruvate kinase PKLR [8]) was 4.74. It also gave an inhibition [9] of 59.6%, a pIC50 (Pyruvate kinase) of 6.05 and an inhibition (Pyruvate kinase PKLR [10]) of 3.3%. The inhibition (Pyruvate kinase PKM [11]) was 1.1%, the inhibition (Pyruvate kinase PKM [12]) was 2.8% and the pIC50 (Pyruvate kinase PKLR [13]) was 4.67. The pIC50 (Pyruvate kinase PKM [14]) was 4.26.
In the case of `FC(F)(F)c1ccc2[nH]cc(CCc3c[nH]c4ccccc34)c2c1`, the inhibition (Pyruvate kinase PKLR [1]) was 91.4%, the pIC50 (Pyruvate kinase) was 4.88 and the inhibition (Pyruvate kinase PKM [2]) was 36.7%. For the same compound, the inhibition (Pyruvate kinase PKLR [3]) was 85.4%, the inhibition (Pyruvate kinase PKM [4]) was 95.2% and the inhibition [5] was 88.4%.
`O=[N+]([O-])c1cccc2[nH]cc(CCc3c[nH]c4ccccc34)c12` gave an inhibition (Pyruvate kinase PKM [15]) of 2.2%, a pIC50 (Pyruvate kinase) of 5.24 and an inhibition (Pyruvate kinase PKLR [16]) of 71.8%. It also gave an inhibition [17] of 92.8%, an inhibition (Pyruvate kinase PKLR [18]) of 75.5% and an inhibition (Pyruvate kinase PKM [19]) of 50.1%.
`COc1ccc2[nH]cc(CCc3c[nH]c4ccccc34)c2c1` was tested, and the pIC50 (Pyruvate kinase) was 4.41.
Work on `Fc1ccc2[nH]cc(CCc3c[nH]c4ccccc34)c2c1` yielded an inhibition (Pyruvate kinase PKLR [20]) of 101%, an inhibition (Pyruvate kinase PKLR [21]) of 99% and an inhibition [22] of 108%. It also gave a pIC50 (Pyruvate kinase) of 4.70, an inhibition (Pyruvate kinase PKM [23]) of 85.5% and an inhibition (Pyruvate kinase PKM [24]) of 55.1%.
In the case of `Cc1ccc2c(CCc3c[nH]c4ccccc34)c[nH]c2c1`, the pIC50 (Pyruvate kinase) was 3.53.
Compound `CCN(C(C)=O)c1ccc2c(CCc3c[nH]c4ccccc34)c[nH]c2c1` has a pIC50 (Pyruvate kinase) of 3.83.
`COc1ccc2c(CCc3c[nH]c4ccccc34)c[nH]c2c1` was tested, and the IC50 (Pyruvate kinase) was “Not Active”.
Work on `N#Cc1ccc2[nH]cc(CCc3c[nH]c4ccccc34)c2c1` yielded an inhibition (Pyruvate kinase PKLR [25]) of 62.4%, an inhibition [26] of 82.9% and an inhibition (Pyruvate kinase PKLR [27]) of 53.5%. For the same compound, the inhibition (Pyruvate kinase PKM [28]) was -0.5%, the pIC50 (Pyruvate kinase) was 5.38 and the inhibition (Pyruvate kinase PKM [29]) was 1.1%.
Compound `Clc1ccc2c(CCc3c[nH]c4ccccc34)c[nH]c2c1` has a pIC50 (Pyruvate kinase) of 3.57.
For `Fc1cc(Cl)cc2c(CCc3c[nH]c4ccccc34)c[nH]c12`, the inhibition (Pyruvate kinase PKM [15]) was 1.1%, the pIC50 (Pyruvate kinase) was 5.34 and the inhibition (Pyruvate kinase PKLR [16]) was 85.4%. It also gave an inhibition [17] of 88.2%, an inhibition (Pyruvate kinase PKLR [18]) of 95.7% and an inhibition (Pyruvate kinase PKM [19]) of 80.9%.
`c1ccc2c(CCc3c[nH]c4ccccc34)c[nH]c2c1` showed a pIC50 (Pyruvate kinase) of 4.24.
